Experimental data: ChEMBL document CHEMBL1151613, “Potential anticancer agents XXXI. N-demethylation of fagaronine” (1984)
≈ marks a conversion by molar mass, not a printed value. Calls of active or inactive are those of the source. The rule behind the calls is not given here.

Columns and labels:
[1] = system: KB; test: Cytotoxicity against human KB cells after 48 hrs; type: functional; details: read-out: ED50 (the source's name)
[2] = system: P388; test: Cytotoxicity against mouse P388 cells after 48 hrs; type: functional; details: P388, 48 h, read-out: ED50 (the source's name)
[3] = system: KB; test: Cytotoxicity against human KB cells at 25 ug/ml after 48 hrs; type: functional, cell-based
[4] = system: P388; test: Cytotoxicity against mouse P388 cells at 25 ug/ml after 48 hrs; type: functional, cell-based
[5] = system: L1210; test: In vivo antitumor activity against mouse L1210 cells at 320 mg/kg administered on day 1 and 9 relative to control; type: functional
[6] = system: P388; test: In vivo antitumor activity against mouse P388 cells at 160 mg/kg for 1 to 9 days relative to control; type: functional
[7] = system: Colon 26; test: In vivo antitumor activity against mouse Colon 26 cells at 320 mg/kg administered on day 1, 5 and 9 relative to control; type: functional
[8] = system: CX-1; test: In vivo antitumor activity against human CX-1 cells at 300 mg/kg administered on day 1, 5, 9 and 13 relative to control; type: functional
[9] = system: B16; test: In vivo antitumor activity against mouse B16 cells at 50 mg/kg for 1 to 9 days relative to control; type: functional
[10] = system: Colon 26; test: In vivo antitumor activity against mouse Colon 26 cells at 40 mg/kg administered on day 1, 5 and 9 relative to control; type: functional
[11] = system: LX-1; test: In vivo antitumor activity against human LX1 cells at 2400 mg/kg administered on day 1, 5 and 9 relative to control; type: functional
[12] = system: P388; test: In vivo antitumor activity against mouse P388 cells at 320 mg/kg for 1 to 9 days relative to control; type: functional
[13] = In vivo antitumor activity against mouse CD8F1 cells at 500 mg/kg administered on day 24 relative to control; type: functional
[14] = system: LX-1; test: In vivo antitumor activity against human LX1 cells at 300 mg/kg administered on day 1, 5 and 9 relative to control; type: functional
[15] = system: B16; test: In vivo antitumor activity against mouse B16 cells at 200 mg/kg for 1 to 9 days relative to control; type: functional
[16] = system: MC-38; test: In vivo antitumor activity against mouse Colon 38 cells at 200 mg/kg administered on day 2 and 9 relative to control; type: functional
[17] = In vivo antitumor activity against mouse CD8F1 cells at 125 mg/kg administered on day 24 relative to control; type: functional
[18] = system: Lewis lung carcinoma cell line; test: In vivo antitumor activity against mouse LLC cells at 25 mg/kg for 1 to 9 days relative to control; type: functional
[19] = In vivo antitumor activity against mouse CD8F1 cells at 2000 mg/kg on day 24 relative to control; type: functional
[20] = system: L1210; test: In vivo antitumor activity against mouse L1210 cells at 160 mg/kg administered on day 1 and 9 relative to control; type: functional
[21] = system: Lewis lung carcinoma cell line; test: In vivo antitumor activity against mouse LLC cells at 200 mg/kg for 1 to 9 days relative to control; type: functional
[22] = system: Lewis lung carcinoma cell line; test: In vivo antitumor activity against mouse LLC cells at 50 mg/kg for 1 to 9 days relative to control; type: functional
[23] = system: L1210; test: In vivo antitumor activity against mouse L1210 cells at 320 mg/kg administered on day 1, 5 and 9 relative to control; type: functional
[24] = system: CX-1; test: In vivo antitumor activity against human CX-1 cells at 150 mg/kg administered on day 1, 5,9 and 13 relative to control; type: functional
[25] = system: MX1; test: In vivo antitumor activity against human MX1 cells at 1200 mg/kg administered on day 1, 5 and 9 relative to control; type: functional
[26] = system: L1210; test: In vivo antitumor activity against mouse L1210 cells at 40 mg/kg administered on day 1 and 9 relative to control; type: functional
[27] = system: B16; test: In vivo antitumor activity against mouse B16 cells at 100 mg/kg for 1 to 9 days relative to control; type: functional
[28] = system: MC-38; test: In vivo antitumor activity against mouse Colon 38 cells at 100 mg/kg administered on day 2 and 9 relative to control; type: functional
[29] = system: LX-1; test: In vivo antitumor activity against human LX1 cells at 1200 mg/kg administered on day 1, 5 and 9 relative to control; type: functional
[30] = system: MX1; test: In vivo antitumor activity against human MX1 cells at 300 mg/kg relative to control on day 1, 5 and 9 relative to control; type: functional
[31] = system: P388; test: In vivo antitumor activity against mouse P388 cells at 40 mg/kg administered on day 1, 5 and 9 relative to control; type: functional
[32] = system: P388; test: In vivo antitumor activity against mouse P388 cells at 160 mg/kg administered on day 1, 5 and 9 relative to control; type: functional
[33] = system: L1210; test: In vivo antitumor activity against mouse L1210 cells at 80 mg/kg administered on day 1, 5 and 9 relative to control; type: functional
[34] = system: P388; test: In vivo antitumor activity against mouse P388 cells at 25 mg/kg for 1 to 10 days relative to control; type: functional
[35] = system: Colon 26; test: In vivo antitumor activity against mouse Colon 26 cells at 80 mg/kg administered on day 1, 5 and 9 relative to control; type: functional
[36] = system: P388; test: In vivo antitumor activity against mouse P388 cells at 320 mg/kg administered on day 1, 5 and 9 relative to control; type: functional
[37] = system: P388; test: In vivo antitumor activity against mouse P388 cells at 100 mg/kg for 1 to 10 days relative to control; type: functional
[38] = In vivo antitumor activity against mouse CD8F1 cells at 1000 mg/kg administered on day 24 relative to control; type: functional
[39] = system: P388; test: In vivo antitumor activity against mouse P388 cells at 80 mg/kg administered on day 1, 5 and 9 relative to control; type: functional
[40] = system: P388; test: In vivo antitumor activity against mouse P388 cells at 50 mg/kg for 1 to 10 days relative to control; type: functional
[41] = system: MX1; test: In vivo antitumor activity against human MX1 cells at 600 mg/kg administered on day 1, 5 and 9 relative to control; type: functional
[42] = system: P388; test: In vivo antitumor activity against mouse P388 cells at 80 mg/kg for 1 to 9 days relative to control; type: functional
[43] = system: MX1; test: In vivo antitumor activity against human MX1 cells at 150 mg/kg administered on day 1, 5 and 9 relative to control; type: functional
[44] = system: L1210; test: In vivo antitumor activity against mouse L1210 cells at 80 mg/kg administered on day 1 and 9 relative to control; type: functional
[45] = system: P388; test: In vivo antitumor activity against mouse P388 cells at 40 mg/kg for 1 to 9 days relative to control; type: functional
[46] = system: Colon 26; test: In vivo antitumor activity against mouse Colon 26 cells at 160 mg/kg administered on day 1, 5 and 9 relative to control; type: functional
[47] = system: MC-38; test: In vivo antitumor activity against mouse Colon 38 cells at 50 mg/kg administered on day 2 and 9 relative to control; type: functional
[48] = system: L1210; test: In vivo antitumor activity against mouse L1210 cells at 40 mg/kg administered on day 1, 5 and 9 relative to control; type: functional
[49] = system: LX-1; test: In vivo antitumor activity against human LX1 cells at 600 mg/kg administered on day 1, 5 and 9 relative to control; type: functional
[50] = system: CX-1; test: In vivo antitumor activity against human CX-1 cells at 75 mg/kg administered on day 1, 5,9 and 13 relative to control; type: functional
[51] = In vivo antitumor activity against mouse CD8F1 cells at 250 mg/kg administered on day 24 relative to control; type: functional
[52] = system: Lewis lung carcinoma cell line; test: In vivo antitumor activity against mouse LLC cells at 100 mg/kg for 1 to 9 days relative to control; type: functional
[53] = system: L1210; test: In vivo antitumor activity against mouse L1210 cells at 160 mg/kg administered on day 1, 5 and 9 relative to control; type: functional
[54] = system: CX-1; test: In vivo antitumor activity against human CX-1 cells at 600 mg/kg administered on day 1, 5, 9 and 13 relative to control; type: functional

COc1cc2c(cnc3c4cc(OC)c(OC(C)=O)cc4ccc23)cc1OC(C)=O
EC50 [1]: 50 µg/mL (≈ 123 µM) | EC50 [2]: 12.5 µg/mL (≈ 30.8 µM)

COc1cc2c(ccc3c4cc(OC)c(OC)cc4cnc23)cc1O
Activity [3]: inactive | EC50 [2]: 36.5 µg/mL (≈ 109 µM)

COc1cc2c(cnc3c4cc(OC)c(O)cc4ccc23)cc1O
EC50 [1]: 22.4 µg/mL (≈ 69.7 µM) | EC50 [2]: 13 µg/mL (≈ 40.5 µM)

COc1cc2cnc3c4cc(OC)c(OC(C)=O)cc4ccc3c2cc1OC
Activity [4]: inactive | Activity [3]: inactive

COc1cc2cnc3c4cc(OC)c(OC)cc4ccc3c2cc1OC
Activity [4]: inactive | Activity [3]: inactive

COc1cc2c(ccc3c4cc(OC)c(OC)cc4c[n+](C)c23)cc1O.[Cl-] [FAGARONINE]
T/C [5]: 161% | T/C [6]: 270% | T/C [7]: 138% | T/C [8]: 51% | T/C [9]: 108% | T/C [10]: 117% | T/C [11]: 65% | T/C [12]: 205% | T/C [13]: 134% | T/C [14]: 107% | T/C [15]: 100% | T/C [16]: 81% | T/C [17]: 137% | T/C [18]: 111% | T/C [19]: 121% | T/C [20]: 145% | T/C [21]: 134% | EC50 [1]: 0.57 µg/mL | T/C [22]: 113% | T/C [23]: 137% | T/C [24]: 42% | T/C [25]: 68% | T/C [26]: 137% | T/C [27]: 97% | T/C [28]: 89% | T/C [29]: 46% | T/C [30]: 74% | T/C [31]: 190% | T/C [32]: 215% | T/C [33]: 145% | T/C [34]: 90% | T/C [35]: 121% | T/C [36]: 270% | EC50 [2]: 0.18 µg/mL | T/C [37]: 265% | T/C [38]: 89% | T/C [39]: 180% | T/C [40]: 210% | T/C [41]: 79% | T/C [42]: 210% | T/C [43]: 83% | T/C [44]: 159% | T/C [45]: 190% | T/C [46]: 120% | T/C [47]: 139% | T/C [48]: 143% | T/C [49]: 79% | T/C [50]: 49% | T/C [51]: 190% | T/C [52]: 125% | T/C [53]: 136% | T/C [54]: 75%
